Measurements: US5936088A, “Substituted azacyclic or azabicyclic compounds with affinity and selectivity for nicotinic cholinergic receptors” (Novo Nordisk A/S, priority 1995, dated 1999)
Where a name gives a salt, the structure may show the parent alone. Read-outs that look alike come from different tables or passages of the source.

Legend:
[1] = target: T1, nicotinic acetylcholine receptors (Rattus norvegicus, UniProt P09483+P12390); test: inhibition of specific binding of ^3 H-methylcarbamylcholine (^3 H-MCC); details: for IC50: rat cortical receptors, ^3 H-MCC 2 nM, 0° C., 60 min
T1 construct: Fresh or frozen rat, brain tissue (hippocampus or cortex) was homogenized; from tissue
From the text: The pharmacological properties of the compounds of the invention can be illustrated by determining their capability to inhibit the specific binding of ^3 H-methylcarbamylcholine (^3 H-MCC) (Abood and Grassi, Biochem. Pharmacol., Vol. 35, pp. 4199-4202, (1986)).
^3 H-MCC labels the nicotinic receptors in the CNS. The inhibitory effect on ^3 H-MCC binding reflects the affinity for nicotinic acetylcholine receptors.
Fresh or frozen rat, brain tissue (hippocampus or cortex) was homogenized in assay buffer (50 mM Tris-HCl, pH 7.4, 120 mM NaCl, 5 mM KCl, 2 mM CaCl2, 1 mM MgCl2) and centrifuged for 10 min. at 40.000×g. Pellets were subsequently reconstituted in assay buffer and an appropriate amount of tissue sample was mixed in tubes with ^3 H-methylcarbamylcholine (NEN, NET-951; final concentration 2 nM) and test drug. The tubes were incubated at 0° C. for 60 min. Unbound ligand was separated from bound ligand by vacuum filtration through GF/B filters presoaked in 0.5% polyethylenimine. Filters were washed three times with 5 ml wash buffer (50 mM Tris-HCl, pH 7.4) and transferred to vials. 4 ml scintillation fluid was added and the radioactivity was measured by scintillation counting. Unspecific binding was measured with 10 μM nicotine.
The IC50 values of the test compounds were determined by nonlinear regression analyses (GraphPad InPlot).
Table I illustrates the affinity of the compounds of the present invention for nicotinic and muscarinic receptors as determined by ^3 H-MCC and ^3 H-Oxo binding to rat cortical receptors. The compounds, however, show selective affinity for nicotinic receptors as compared to muscarinic receptors, i.e OXO/MCC>1.

[2] = target: muscarinic acetylcholine receptors; test: inhibition of specific binding of ^3 H-Oxotremorine-M (^3 H-Oxo); details: rat cortical receptors; ^3 H-Oxotremorine 1.0 nM, 25° C., 30 min
From the text: Furthermore, the pharmacological properties of the compounds of the invention can also be illustrated by determining their capability to inhibit the specific binding of ^3 H-Oxotremorine-M (^3 H-Oxo). Birdsdall N. J. M., Hulme E. C., and Burgen A. S. V. (1980). "The Character of Muscarinic Receptors in Different Regions of the Rat Brain". Proc. Roy. Soc. London (Series B) 207,1.
^3 H-Oxo labels muscarinic receptor in the CNS (with a preference for agonist domains of the receptors). Three different sites are labelled by ^3 H-Oxo. […] Using the present experimental conditions only the high and medium affinity sites are determined.
The inhibitory effects of compounds on ^3 H-Oxo binding reflects the affinity for muscarinic acetylcholine receptors.
All preparations are performed at 0-4° C. unless otherwise indicated. […]
The final pellet is homogenized in 20 mM Hepes pH: 7.4 (100 ml per g of original tissue) and used for binding assay. […] Non-specific binding is determined in triplicate using arecoline (1 ug/ml, final concentration) as the test substance. […] The amount of radioactivity on the filters are determined by conventional liquid scintillation counting. […]
Table I illustrates the affinity of the compounds of the present invention for nicotinic and muscarinic receptors as determined by ^3 H-MCC and ^3 H-Oxo binding to rat cortical receptors. […]

[3] = target: muscarinic acetylcholine receptors; details: read-out: affinity of ^3 H-Oxo labelled site, cited from earlier work
cognition = details: age related; cited from earlier work
attention and memory = details: healthy humans and Alzheimer's disease patients; cited from earlier work
[4] = test system: dopamine release in the nucleus accumbens; details: nucleus accumbens versus striatum; cited from earlier work
Tourette's syndrome = details: in vivo; cited from earlier work
substantia nigra = details: chronic nicotine; lesioning; cited from earlier work
dopaminergic effects = details: various behavioral models; cited from earlier work

T1 sequence (P09483 31-630): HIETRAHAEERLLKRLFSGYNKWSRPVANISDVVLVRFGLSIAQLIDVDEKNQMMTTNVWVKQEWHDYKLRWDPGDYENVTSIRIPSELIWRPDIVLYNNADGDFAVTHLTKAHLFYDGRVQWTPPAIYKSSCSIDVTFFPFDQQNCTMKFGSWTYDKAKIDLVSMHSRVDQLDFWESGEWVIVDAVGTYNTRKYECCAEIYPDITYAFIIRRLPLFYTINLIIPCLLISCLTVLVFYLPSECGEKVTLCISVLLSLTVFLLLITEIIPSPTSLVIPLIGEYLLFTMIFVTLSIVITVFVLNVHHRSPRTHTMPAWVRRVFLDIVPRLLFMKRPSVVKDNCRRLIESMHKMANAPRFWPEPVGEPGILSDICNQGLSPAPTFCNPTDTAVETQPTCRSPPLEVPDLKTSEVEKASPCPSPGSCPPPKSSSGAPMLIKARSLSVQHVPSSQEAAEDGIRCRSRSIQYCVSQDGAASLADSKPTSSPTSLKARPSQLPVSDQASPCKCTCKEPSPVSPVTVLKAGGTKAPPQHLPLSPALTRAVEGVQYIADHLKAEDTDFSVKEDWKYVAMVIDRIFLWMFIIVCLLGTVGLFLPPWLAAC
T1 sequence (P12390 25-500): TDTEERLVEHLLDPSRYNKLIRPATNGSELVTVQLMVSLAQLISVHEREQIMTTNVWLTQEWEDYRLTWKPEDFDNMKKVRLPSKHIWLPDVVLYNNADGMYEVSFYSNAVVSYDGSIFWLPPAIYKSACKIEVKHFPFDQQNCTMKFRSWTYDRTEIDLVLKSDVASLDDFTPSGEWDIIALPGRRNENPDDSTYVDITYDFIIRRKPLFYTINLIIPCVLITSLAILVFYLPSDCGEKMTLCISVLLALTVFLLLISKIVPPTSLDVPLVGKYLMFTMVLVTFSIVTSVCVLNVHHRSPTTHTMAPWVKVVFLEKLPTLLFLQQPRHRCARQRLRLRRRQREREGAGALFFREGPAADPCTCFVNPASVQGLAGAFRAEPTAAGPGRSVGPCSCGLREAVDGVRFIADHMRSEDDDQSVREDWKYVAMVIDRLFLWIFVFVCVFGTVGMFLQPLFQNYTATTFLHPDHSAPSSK

For CC(=O)/C=C1\CN2CCC1CC2.O=C(O)C(=O)O [Compound 1, (Z)-3-Acetylmethylene-1-azabicyclo[2.2.2]octane oxalate], the IC50 [1] was 23 nM, the “Oxo/MCC Ratio” value ([1]; selectivity nicotinic versus muscarinic: ^3 H-Oxo IC50 / ^3 H-MCC IC50) was 52 and the IC50 [2] was 1200 nM.
Compound CC(=O)/C=C1/CN2CCC1CC2 [Compound 2, (E)-3-Acetylmethylene-1-azabicyclo[2.2.2]octane oxalate] has an IC50 [1] of over 300 nM and an IC50 [2] of under 1000 nM.
For C[N+](C)(C)CC#CCN1CCCC1=O [^3 H-Oxo, ^3 H-Oxotremorine-M], the Kd ([3]; high affinity site) is given as 1.8 nM, the Kd ([3]; medium affinity site) is given as 20 nM and the Kd ([3]; third (lowest affinity) site, not determined under the present conditions) is given as 3000 nM.
In the case of CNC1(C)C2CCC(C2)C1(C)C (centres unmarked) [mecamylamine], the cognitive impairment (cognition) is listed as “shown to cause cognitive impairment in an age related way”.
For CN1CCCC1c1cccnc1 (centres unmarked) [nicotine], the attention and memory (attention and memory) is given as “improved attention and memory in healthy humans”, the “stimulation of dopamine release” value [4] is given as “stimulates dopamine release in the nucleus accumbens more potently than in striatum” and the “effects in Tourette's syndrome” value (Tourette's syndrome) is given as “shown beneficial effects in Tourette's syndrome”. The “protection against cell loss in the substantia nigra” value (substantia nigra) was “may protect against cell loss in the substantia nigra caused by lesioning” and the “potentiation of dopaminergic effects” value (dopaminergic effects) was “will potentiate dopaminergic effects in various behavioral models”.
